In patent US8088806B2 (Achillion Pharmaceuticals, Inc., priority 2005, dated 2012):

test system: HCV replicon; assay: Replicon based assay of HCV replication inhibition (NPT ELISA); format: cell-based, Hepatitis C virus; conditions: Hepatitis C virus, Huh-7, 72 h, Table III; Huh-7 HCV replicon-containing cells, three days; read-out: Activity
Summary of the method: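 NPT (neomycin phosphotransferase) content, proportional to replicon replication, quantified by capture ELISA on day four. Before that, replicon-bearing Huh-7 cells in G418-free screening medium were exposed three days at 37° C to compound, typically six doses from 10 to 0.03 micromolar, with equal DMSO across wells.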

FC(F)(F)c1cc(Nc2nc(-c3cncnc3)cs2)ccc1OC1CCCC1 [compound 621, N-(4-(cyclopentyloxy)-3-(trifluoromethyl)phenyl)-4-(pyrimidin-5-yl)thiazol-2-amine] and FC(F)(F)c1cc(Nc2nc(-c3cccnc3)cs2)ccc1OCC1CCCCC1 [compound 658, N-(4-(cyclohexylmethoxy)-3-(trifluoromethyl)phenyl)-4-(pyridin-3-yl)thiazol-2-amine] cannot be ordered by EC50: less than 1000 nM for the first, less than 1000 nM for the second.

Compared with FC(F)(F)c1cc(Nc2nccs2)ccc1OCCCC1CCCC1 [compound 622, N-(4-(3-cyclopentylpropoxy)-3-(trifluoromethyl)phenyl)thiazol 2-amine], Oc1csc(Nc2ccc(OCCCC3CCCC3)c(C(F)(F)F)c2)n1 [compound 652] is higher in EC50: less than 1000 nM for the first, 1000 to 10000 nM for the second. The first is the more potent here.

Compared with CCCCCCCCOc1ccc(Nc2nccs2)cc1 [compound 623, N-(4-(octyloxy)phenyl)thiazol-2-amine], CCCCCCCCOc1ccc(Nc2nc(Cc3ccc(F)cc3)cs2)cc1 [compound 628, 4-(4-fluorobenzyl)-N-(4-(octyloxy)phenyl)thiazol-2-amine] is higher in EC50: less than 1000 nM for the first, 1000 to 10000 nM for the second. The first is the more potent here.

Compared with CCCCCCCCN(C)c1ccc(Nc2nccs2)cc1C(F)(F)F [compound 624, 2-(trifluoromethyl)-N^1-methyl-N^1-octyl-N^4-(thiazol-2-yl)benzene-1,4-diamine], CCCCCCCCN(C)c1ccc(Nc2nc(O)cs2)cc1C(F)(F)F [compound 651] is higher in EC50: less than 1000 nM for the first, 1000 to 10000 nM for the second. The first is the more potent here.

CCCCCOc1ccc(Nc2nc(Cc3ccc(F)cc3)cs2)cc1C(F)(F)F [compound 627, 4-(4-fluorobenzyl)-N-(3-(trifluoromethyl)-4-(pentyloxy)phenyl)thiazol-2-amine] and CCCCCCCCOc1ccc(Nc2nc(Cc3ccc(F)cc3)cs2)cc1C(F)(F)F [compound 629, 4-(4-fluorobenzyl)-N-(3-(trifluoromethyl)-4-(octyloxy)phenyl)thiazol-2-amine] cannot be ordered by EC50: less than 1000 nM for the first, less than 1000 nM for the second.

CCCCCOc1ccc(Nc2nc(Cc3ccc(F)cc3)cs2)cc1F [compound 630, 4-(4-fluorobenzyl)-N-(3-fluoro-4-(pentyloxy)phenyl)thiazol-2-amine] and CCCCCOc1ccc(Nc2nc(Cc3ccc(Cl)cc3)cs2)cc1F [compound 636, 4-(4-chlorobenzyl)-N-(3-fluoro-4-(pentyloxy)phenyl)thiazol-2-amine] cannot be ordered by EC50: greater than 10000 nM for the first, greater than 10000 nM for the second.

CCCCCN(C)c1ccc(Nc2nc(Cc3ccc(F)cc3)cs2)cc1C(F)(F)F [compound 631, N^4-(4-(4-fluorobenzyl)thiazol-2-yl)-2-(trifluoromethyl)-N^1-methyl-N^1-pentylbenzene-1,4-diamine] and CCCCCN(C)c1ccc(Nc2nc(Cc3ccc(OC)cc3)cs2)cc1C(F)(F)F [compound 643, N^4-(4-(4-methoxybenzyl)thiazol-2-yl)-2-(trifluoromethyl)-N^1-methyl-N^1-pentylbenzene-1,4-diamine] cannot be ordered by EC50: greater than 10000 nM for the first, greater than 10000 nM for the second.

First: CCCCCCCCN(C)c1ccc(Nc2nc(Cc3ccc(F)cc3)cs2)cc1 [compound 632, N^1-(4-(4-fluorobenzyl)thiazol-2-yl)-N^4-methyl-N^4-octylbenzene-1,4-diamine]
Second: CCCCCCCCN(C)c1ccc(Nc2nc(Cc3ccc(Cl)cc3)cs2)cc1 [compound 638, N^1-(4-(4-chlorobenzyl)thiazol-2-yl)-N^4-methyl-N^4-octylbenzene-1,4-diamine]
The EC50 of the first is higher: greater than 10000 nM for the first, 1000 to 10000 nM for the second. The second is the more potent here.

CCCCCOc1ccc(Nc2nc(Cc3ccc(Cl)cc3)cs2)cc1C(F)(F)F [compound 633, 4-(4-chlorobenzyl)-N-(3-(trifluoromethyl)-4-(pentyloxy)phenyl)thiazol-2-amine] and CCCCCCCCOc1ccc(Nc2nc(Cc3ccc(Cl)cc3)cs2)cc1C(F)(F)F [compound 635, 4-(4-chlorobenzyl)-N-(3-(trifluoromethyl)-4-(octyloxy)phenyl)thiazol-2-amine] fall in the same range of EC50: 1000 to 10000 nM for the first, 1000 to 10000 nM for the second.

CCCCCCCCOc1ccc(Nc2nc(Cc3ccc(Cl)cc3)cs2)cc1 [compound 634, 4-(4-chlorobenzyl)-N-(4-(octyioxy)phenyl)thiazol-2-amine] and CCCCCCCCOc1ccc(Nc2nc(Cc3ccc(OC)cc3)cs2)cc1 [compound 640, 4-(4-methoxybenzyl)-N-(4-(octyloxy)phenyl)thiazol-2-amine] cannot be ordered by EC50: greater than 10000 nM for the first, greater than 10000 nM for the second.

First: CCCCCOc1ccc(Nc2nc(Cc3ccc(OC)cc3)cs2)cc1C(F)(F)F [compound 639, 4-(4-methoxybenzyl)-N-(3-(trifluoromethyl)-4-(pentyloxy)phenyl)thiazol-2-amine]
Second: CCCCCCCCOc1ccc(Nc2nc(Cc3ccc(OC)cc3)cs2)cc1C(F)(F)F [compound 641, 4-(4-methoxybenzyl)-N-(3-(trifluoromethyl)-4-(octyloxy)phenyl)thiazol-2-amine]
The EC50 of the first is higher: 1000 to 10000 nM for the first, less than 1000 nM for the second.

CCCCCOc1ccc(Nc2nc(Cc3ccc(OC)cc3)cs2)cc1F [compound 642, 4-(4-methoxybenzyl)-N-(3-fluoro-4-(pentyloxy)phenyl)thiazol-2-amine] and CCCCCCCCN(C)c1ccc(Nc2nc(Cc3ccc(OC)cc3)cs2)cc1 [compound 644, N^1-(4-(4-methoxybenzyl)thiazol-2-yl)-N^4-methyl-N^4-octylbenzene-1,4-diamine] cannot be ordered by EC50: greater than 10000 nM for the first, greater than 10000 nM for the second.

CCC(CC)Oc1ccc(Nc2nc(-c3cccnc3)cs2)cc1C(F)(F)F [compound 645, N-(3-(trifluoromethyl)-4-(pentan-3-yloxy)phenyl)-4-(pyridin-3-yl)thiazol-2-amine] and CCCCCOc1ccc(Nc2nc(-c3cncc(C(=O)O)c3)cs2)cc1C(F)(F)F [compound 646, 5-(2-(3-(trifluoromethyl)-4-(pentyloxy)phenylamino)thiazol-4-yl)pyridine-3-carboxylic acid] cannot be ordered by EC50: less than 1000 nM for the first, less than 1000 nM for the second.

First: CCCCCOc1ccc(Nc2nc(-c3cncc(C(=O)N(C)C)c3)cs2)cc1C(F)(F)F [compound 647, 5-(2-(3-(trifluoromethyl)-4-(pentyloxy)phenylamino)thiazol-4-yl)-N,N-dimethylpyridine-3-carboxamide]
Second: CCCCCCCCOc1ccc(Nc2nc(-c3cncc(OC)c3)cs2)cc1C(F)(F)F [compound 656, N-(3-(trifluoromethyl)-4-(octyloxy)phenyl)-4-(5-methoxypyridin-3-yl)thiazol-2-amine]
The EC50 of the first is lower: less than 1000 nM for the first, 1000 to 10000 nM for the second.

Compared with CCCCCCCCOc1ccc(Nc2nc(-c3cncc(C(=O)O)c3)cs2)cc1 [compound 648, 5-(2-(4-(octyloxy)phenylamino)thiazol-4-yl)pyridine-3-carboxylic acid], CCCCCCCCOc1ccc(Nc2nc(-c3cncc(C(N)=O)c3)cs2)cc1 [compound 653, 5-(2-(4-(octyloxy)phenylamino)thiazol 4-yl)pyridine-3-carboxamide] is lower in EC50: 1000 to 10000 nM for the first, less than 1000 nM for the second. The second is the more potent here.

CCCCCCCCOc1ccc(Nc2nc(-c3cncc(C(=O)N(C)C)c3)cs2)cc1 [compound 649, 5-(2-(4-(octyloxy)phenylamino)thiazol-4-yl)-N,N-dimethylpyridine-3-carboxamide] and CCCCCCCCOc1ccc(Nc2nc(-c3cncc(OC)c3)cs2)cc1 [compound 657, 4-(5-methoxypyridin-3-yl)-N-(4-(octyloxy)phenyl)thiazol-2-amine] fall in the same range of EC50: 1000 to 10000 nM for the first, 1000 to 10000 nM for the second.

First: CCCCCCCCOc1ccc(Nc2nc(O)cs2)cc1C(F)(F)F [compound 650, 2-(3-(trifluoromethyl)-4-(octyloxy)phenylamino)thiazol-4-ol]
Second: CCCCCCCCOc1ccc(Nc2nc(-c3cnc(O)cc3C)cs2)cc1C(F)(F)F [compound 659, 5-(2-(3-(trifluoromethyl)-4-(octyloxy)phenylamino)thiazol-4-yl)-4-methylpyridin-2-ol]
The EC50 of the first is higher: 1000 to 10000 nM for the first, less than 1000 nM for the second. The second is the more potent here.

CCCCCCCCOc1ccc(Nc2nc(-c3cncc(C#N)c3)cs2)cc1C(F)(F)F [compound 654, 5-(2-(3-(trifluoromethyl)-4-(octyloxy)phenylamino)thiazol-4-yl)pyridine-3-carbonitrile] and CCCCCCCCOc1ccc(Nc2nc(-c3cnc(OC)nc3)cs2)cc1C(F)(F)F [compound 662, N-(3-(trifluoromethyl)-4-(octyloxy)phenyl)-4-(2-methoxypyrimidin-5-yl)thiazol-2-amine] cannot be ordered by EC50: less than 1000 nM for the first, less than 1000 nM for the second.

CCCCCCCCOc1ccc(Nc2nc(-c3cncc(C#N)c3)cs2)cc1 [compound 655, 5-(2-(4-(octyloxy)phenylamino)thiazol-4-yl)pyridine-3-carbonitrile] and CCCCCCCCOc1ccc(Nc2nc(-c3ccc(CCO)cc3)cs2)cc1C(F)(F)F [compound 666, 2-(4-(2-(3-(trifluoromethyl)-4-(octyloxy)phenylamino)thiazol-4-yl)phenyl)ethanol] cannot be ordered by EC50: less than 1000 nM for the first, less than 1000 nM for the second.

CCCCCCCCOc1ccc(Nc2nc(-c3ccc4c(c3)COC4=O)cs2)cc1C(F)(F)F [compound 660, 5-(2-(3-(trifluoromethyl)-4-(octyloxy)phenylamino)thiazol-4-yl)isobenzofuran-1(3H)-one] and CCCCCCCCOc1ccc(Nc2nc(-c3ccc4[nH]c(=O)oc(=O)c4c3)cs2)cc1C(F)(F)F [compound 665, 6-(2-(3-(trifluoromethyl)-4-(octyloxy)phenylamino)thiazol-4-yl)-1H-benzo[d][1,3]oxazine-2,4-dione] cannot be ordered by EC50: less than 1000 nM for the first, less than 1000 nM for the second.

CCCCCCCCOc1ccc(Nc2nc(-c3ccc(-n4ccnc4)cc3)cs2)cc1C(F)(F)F [compound 661, 4-(4-(1H-imidazol-1-yl)phenyl)-N-(3-(trifluoromethyl)-4-(octyloxy)phenyl)thiazol-2-amine] and CCCCCCCCOc1ccc(Nc2nc(-c3cncn3C)cs2)cc1C(F)(F)F [compound 663, N-(3-(trifluoromethyl)-4-(octyloxy)phenyl)-4-(1-methyl-1H-imidazol-5-yl)thiazol-2-amine] cannot be ordered by EC50: less than 1000 nM for the first, less than 1000 nM for the second.

With CCCCCCCCOc1ccc(Nc2nc(-c3cccc4nsnc34)cs2)cc1C(F)(F)F [compound 664, 4-(benzo[c][1,2,5]thiadiazol-4-yl)-N-(3-(trifluoromethyl)-4-(octyloxy)phenyl)thiazol-2-amine] the EC50 was less than 1000 nM.
